{"source": "patent US6114390A", "about": "“Amino acid derivatives, pharmaceutical compositions containing these compounds and processes for preparing them” (Karl Thomae GmbH, priority 1997, dated 2000)", "key": {"[1]": {"experiment": "Food intake in food-deprived rats", "type": "in vivo, rat", "conditions": "15 μg, bilaterally, PVN", "procedure": "Food-deprivation experiments were conducted with male Chbb:Thom rats weighing between 300 and 350 g. The animals were individually housed for the duration of the study and allowed free access to normal food together with tap water. Food was removed from the animals for 24 hours starting at 8:00 a.m. At the end of the fasting period compound or vehicle was administered to the animals by infusion into the PVN. Food was returned to the animals and their food intake monitored at various time periods during the following 24 hour period. The food intake of animals treated with test compound was calculated as a percentage of the food intake of control animals (i.e., animals treated with vehicle)."}, "[2]": {"target": "T1, rat Y5 receptor (Rattus norvegicus, UniProt Q63634)", "T1 construct": "expressed in transfected cells; host or cells: CHO", "T1 sequence (Q63634 1-445)": "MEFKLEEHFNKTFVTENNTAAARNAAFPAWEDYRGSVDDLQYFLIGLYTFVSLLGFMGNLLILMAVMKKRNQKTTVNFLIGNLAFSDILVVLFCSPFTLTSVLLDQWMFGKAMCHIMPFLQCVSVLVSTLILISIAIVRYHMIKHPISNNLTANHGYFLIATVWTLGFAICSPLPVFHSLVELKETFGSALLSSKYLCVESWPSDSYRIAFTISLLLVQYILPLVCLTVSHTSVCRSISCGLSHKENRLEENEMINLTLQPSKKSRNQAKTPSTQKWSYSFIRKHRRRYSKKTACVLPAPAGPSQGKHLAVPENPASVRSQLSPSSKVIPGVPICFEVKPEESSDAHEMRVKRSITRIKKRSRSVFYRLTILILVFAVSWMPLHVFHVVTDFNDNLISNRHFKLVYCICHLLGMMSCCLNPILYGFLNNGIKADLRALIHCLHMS", "experiment": "Receptor binding, CHO cells transiently transfected with rat Y5 receptor", "conditions": "means ± S.E.M. of 3 to 5 experiments, read-out: Affinity IC50, ratY5/CHO", "procedure": "(§1) CHO cells transiently transfected with human Y4 and rat Y5 receptor: Transfection was performed using the lipofectamine method according to the manufacturer's protocol (GIBCO BRL Eggenstein, Germany) using expression plasmids encoding the rat Y5 or human Y4 receptor, respectively. Receptor binding was performed as described for rat Y1 expressing HEK 293 cells."}, "[3]": {"target": "T2, human Y4 receptor (Homo sapiens, UniProt P50391)", "T2 construct": "expressed in transfected cells; host or cells: CHO", "T2 sequence (P50391 whole entry)": "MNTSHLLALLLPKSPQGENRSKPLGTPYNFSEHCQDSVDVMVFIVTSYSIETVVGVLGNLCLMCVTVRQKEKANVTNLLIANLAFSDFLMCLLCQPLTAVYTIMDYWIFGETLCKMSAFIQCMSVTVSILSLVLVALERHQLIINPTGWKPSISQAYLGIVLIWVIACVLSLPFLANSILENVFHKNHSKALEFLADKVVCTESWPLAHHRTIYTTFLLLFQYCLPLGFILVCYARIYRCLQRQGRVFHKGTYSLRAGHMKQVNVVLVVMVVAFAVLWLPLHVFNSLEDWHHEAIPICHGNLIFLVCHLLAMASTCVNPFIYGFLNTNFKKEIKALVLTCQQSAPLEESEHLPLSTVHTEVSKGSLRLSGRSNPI", "experiment": "Receptor binding, CHO cells transiently transfected with human Y4 receptor", "conditions": "means ± S.E.M. of 3 to 5 experiments, read-out: Affinity IC50, humanY4/CHO", "procedure": "as §1"}, "[4]": {"test_system": "NPY induced food intake", "experiment": "Food intake in satiated rats after NPY application to the PVN", "type": "in vivo, rat", "conditions": "for % Inhibition of food intake: PVN, 2 h, 1 μg NPY", "procedure": "For these determinations food intake was measured in normal satiated rats after application of NPY to the paraventricular nucleus (PVN) in the presence or absence of the test compound. […] The rats were individually housed in stainless steel cages where water and food were available ad libitum.\nRats under Pentobarbital anaesthesia were stereotactically implanted with a stainless steel double guide cannula targeted bilaterally at the PVNs. Stereotactic coordinates were: -1.8mm caudal, 0.5mm lateral to bregma and 7.0 mm below the skull surface. Injection cannulae extended the guide cannulae by 1 mm. Animals were allowed to recover from surgery for at least 10 days before being used in the experiments. Rats were handled and mock-injected during the […] recovery period to habituate them to the injection procedure.\nAnimals treated with both test compounds and NPY were treated first with the test compound. Then, 15 min. after PVN infusion of the test compound or vehicle (control) 1 μg of NPY was administered by PVN infusion.\nFood intake was measured by placing preweighed pellets into the cages at the time of NPY injection. Pellets were removed from the cage at 2 h post NPY injection. The food intake of animals treated with test compound was calculated as a percentage of the food intake of control animals, i.e., animals treated with vehicle."}}, "data": [{"smiles": "N=C(N)NCCC[C@@H](NC(=O)C(c1ccccc1)c1ccccc1)C(=O)NCc1ccc(CNC(N)=O)cc1", "note": "[Compound C]", "values": [{"measurement": "food intake in 24 hour food deprived rats (result in words)", "setting": "[1]", "value": "significant reduction in food intake"}, {"measurement": "IC50", "setting": "[2]", "value": 21, "unit": "µM"}, {"measurement": "IC50", "setting": "[3]", "value": 12.3, "unit": "µM"}, {"measurement": "NPY induced food intake (result in words)", "setting": "[4]", "value": "reduced"}, {"measurement": "% Inhibition of food intake", "setting": "[4]; 15 μg", "value": 25.9, "unit": "%"}, {"measurement": "% Inhibition of food intake", "setting": "[4]; 30 μg", "value": 52.8, "unit": "%"}, {"measurement": "% Inhibition of food intake", "setting": "[4]; 60 μg", "value": 69.8, "unit": "%"}]}]}
